“Also recorded” adds a separate entry of the source.
Assays:
[1] = test system: PKA present in 2 μg lysate; experiment: Multiplexed lysate assay: PKA phosphorylation of Chromeo642-labeled LRRASLG; format: biochemical, mouse; settings: 3 μM substrate, FIG. 24B
From the text: (§1) In the presence of cAMP, PKA activity is stimulated resulting in phosphorylation of labeled kemptide substrate and an increase in the delta RFU of the kemptide (right axis). PDE4A 1A hydrolyzes c-AMP to AMP resulting in an increase in the delta RFU (left axis). In the presence of the PDE inhibitor IBMX, hydrolysis of cAMP is inhibited resulting in hight concentrations of cAMP and higher PKA activities. FIG. 24B is a line graph of the change in relative fluorescence units (delta RFU) in fluorescien-labelled cAMP (1.5 μM, left axis) and Chromeo642-labeled LRRASLG (3 μM, right axis) caused by PKA present in 2 μg lysate in the presence of varying amounts of the non-selective PDE inhibitor IBMX.
(§2) Multiplexing can be accomplished using electron transfer quenching with zirconyl chloride sensor and 2 μM fluorescein labeled cAMP simultaneously with 2 μM TAMRA labeled cGMP in various concentration of mouse brain lysate.
(§3) The assay platform can be used to monitor activities of enzymes of various classes, and thus is a novel tool to connect different braches of signaling. As outlined in the schematic FIG. 24A, a phsphodiesterase-mediated cleavage of cAMP is inhibited by IBMX. As a result, increasing amounts of cAMP can bind to the regulatory domain of its downstream target, PKA. Upon binding, the regulatory subunits disassociate from the catalytic subunit and PKA becomes catalytically active.

phosphodiesterase = experiment: Multiplexed lysate assay: phosphodiesterase mediated cleavage of fluorescein-labeled cAMP; format: biochemical, mouse; settings: 2 μg lysate, 1.5 μM cAMP substrate, FIG. 24B
From the text: as §1, §2, §3

recombinant PDE41A1A = recombinant PDE41A1A (Homo sapiens, UniProt P27815); experiment: PDE biochemical inhibition assay with fluorescein-labeled cAMP and zirconyl chloride sensor; settings: endpoint mode, PDE4A1A 3 nM, 2 μM fluorescein-labeled cAMP, 100 μM sensor, FIG. 21A
recombinant PDE41A1A, sequence (P27815 1-647 isoform P27815-4): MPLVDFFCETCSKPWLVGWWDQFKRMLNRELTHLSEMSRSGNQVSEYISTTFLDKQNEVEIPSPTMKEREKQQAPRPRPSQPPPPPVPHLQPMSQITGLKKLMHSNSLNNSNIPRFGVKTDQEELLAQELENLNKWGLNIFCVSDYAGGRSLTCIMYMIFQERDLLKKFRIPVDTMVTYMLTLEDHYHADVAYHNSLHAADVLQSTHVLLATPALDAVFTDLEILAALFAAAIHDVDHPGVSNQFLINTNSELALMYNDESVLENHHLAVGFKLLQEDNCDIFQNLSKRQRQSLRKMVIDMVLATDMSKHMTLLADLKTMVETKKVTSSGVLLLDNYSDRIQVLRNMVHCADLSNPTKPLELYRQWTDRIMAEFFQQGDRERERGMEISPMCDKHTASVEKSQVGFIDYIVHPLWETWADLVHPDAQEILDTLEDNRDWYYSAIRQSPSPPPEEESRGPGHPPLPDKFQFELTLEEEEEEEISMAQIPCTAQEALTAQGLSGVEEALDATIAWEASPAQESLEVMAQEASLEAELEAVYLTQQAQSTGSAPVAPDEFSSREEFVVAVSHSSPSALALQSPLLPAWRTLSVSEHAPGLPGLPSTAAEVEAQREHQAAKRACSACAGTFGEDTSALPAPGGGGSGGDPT
Protocol: Assays were conducted with fluorescein-labeled cAMP at 2 μM and sensor (zirconyl chloride) at 100 μM.
For biochemical assays, 2 μM fluorescein labeled cAMP was added to various concentrations of recombinant PDE4AIA and zirconyl chloride sensor was added (100 μM) following 1 hour of incubation at room temperature (FIG. 19A). […] Reactions were terminated by addition of 100 μM Zirconyl sensor. […] Reactions were terminated by addition of 100 μM Zirconyl sensor.

Inhibition values (recombinant PDE41A1A): closely matched literature values
SMILES: CC(C)Cn1c(=O)n(C)c(=O)c2[nH]cnc21 [IBMX]
PKA activity (delta RFU of Chromeo642-labeled LRRASLG) as a function of inhibitor concentration [1]: increasing phosphorylation of the PKA substrate Chromeo-GLRRASLG; also recorded: PKA activity increases with increasing amount of IBMX
PDE activity (delta RFU of fluorescein-labeled cAMP) as a function of inhibitor concentration (phosphodiesterase): decreasing activity of phosphodiesterase mediated cleavage of cAMP; also recorded: PDE activity decreased with increasing amounts of IBMX
